Reference: patent EP1203770A1 (priority 1992, dated 1994)
pKi: −log10 of the molar value. Like-named read-outs stand apart in the source and are kept apart here.

Molecular target: T1, HIV-1 protease (Human immunodeficiency virus type 1 group M subtype B, UniProt P04585)
T1 construct: The protease (or proteinase), consisting of only 99 amino acids, is among the smallest enzymes known
Test: In vitro HIV protease inhibitory assay (HIV Protease FITC Assay)
Type: biochemical
Details: for inhibition at 0.123 µM / inhibition at 0.37 µM / inhibition at 1.1 µM / inhibition at 3.3 µM / inhibition at 10 µM / inhibition at 30 µM: read-out: HIV-1 Protease % Inhib
Outline: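 Biotin/FITC-labelled peptide substrate cleaved by HIV-1 protease for 1 h at room temperature in the dark, in 0.1 M sodium acetate pH 5.5, 1.0 M NaCl, 0.05% NP-40. Uncleaved substrate captured on avidin beads and separated by filtration; fluorescence gave % inhibition.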

SMILES	inhibition at 0.123 µM (HIV-1 Dose 0.123 uM)	inhibition at 0.37 µM (HIV-1 Dose 0.370 uM)	inhibition at 1.1 µM (HIV-1 Dose 1.100 uM)	inhibition at 3.3 µM (HIV-1 Dose 3.300 uM)	inhibition at 10 µM (HIV-1 Dose 10.000 uM)	inhibition at 30 µM (HIV-1 Dose 30.000 uM)	pKi (read-out: HIV-1 FITC Ki)	further results
CC(C)CC1(CCc2ccccc2)CC(O)=C(C(/C=C/c2ccccc2)c2ccccc2)C(=O)O1 (stereo not drawn) [Example 210, 2H-Pyran-2-one, 3-(1,3-diphenyl-2-propenyl)-5.6-dihydro-4-hydroxy-6-(2-methylpropyl)-6-(2-phenylethyl)-]	< 10%	< 10%	37.5%	61%	75%	86%	7.11	–
CC(C)CC1(CCc2ccccc2)CC(O)=C(C(CCc2ccccc2)c2ccccc2)C(=O)O1 (stereo not drawn) [Example 211]	–	–	–	–	–	–	7.19	HIV-1 Protease % Inhib (HIV-1 Dose 0.123 uM): <10%; HIV-1 Protease % Inhib (HIV-1 Dose 0.370 uM): 21.39%; HIV-1 Protease % Inhib (HIV-1 Dose 1.100 uM): 47.29%; HIV-1 Protease % Inhib (HIV-1 Dose 3.300 uM): 66.35%; HIV-1 Protease % Inhib (HIV-1 Dose 10.000 uM): 89.15%; HIV-1 Protease % Inhib (HIV-1 Dose 30.000 uM): 92.11%
CCC(Cc1ccccc1)c1cc(O)c(C(c2cccc(NC(=O)Nc3ccccc3)c2)C2CC2)c(=O)o1 (stereo not drawn) [Example 212, 3-(α-Cyclopropyl-meta-[(phenylaminocarbonyl)amino]benzyl)-6-(α-ethylphenethyl)-4-hydroxy-2H-pyran-2-one]	< 10%	< 10%	17.8%	43.2%	67.1%	69.6%	–	–
CCC(Cc1ccccc1)c1cc(O)c(C(c2cccc(NC(=O)NCc3ccccc3)c2)C2CC2)c(=O)o1 (stereo not drawn) [Example 213, 3-(α-Cyclopropyl-meta-[(benzylaminocarbonyl)amino]benzyl)-6-(α-ethylphenethyl)-4-hydroxy-2H-pyran-2-one]	< 10%	12.1%	30%	55.4%	83.7%	85.8%	–	–
CCC(Cc1ccccc1)c1cc(O)c(C(c2cccc(NC(=O)Nc3ccc(OC)cc3)c2)C2CC2)c(=O)o1 (stereo not drawn) [Example 214, 3-(α-Cyclopropyl-meta-[(4-methoxyphenylaminocarbonyl)amino]benzyl)-6-(α-ethylphenethyl)-4-hydroxy-2H-pyran-2-one]	< 10%	< 10%	32%	66%	79.5%	86%	–	–
CCC(Cc1ccccc1)c1cc(O)c(C(c2cccc(NC(=O)Nc3ccc(Br)cc3)c2)C2CC2)c(=O)o1 (stereo not drawn) [Example 215, 3-(α-Cyclopropyl-meta-[(4-bromophenylaminocarbonyl)amino]benzyl)-6-(α-ethylphenethyl)-4-hydroxy-2H-pyran-2-one]	< 10%	< 10%	< 10%	16.1%	23.1%	28.8%	–	–
CCC(Cc1ccccc1)c1cc(O)c(C(c2cccc(NC(=O)NS(=O)(=O)c3ccccc3)c2)C2CC2)c(=O)o1 (stereo not drawn) [Example 216, 3-(α-Cyclopropyl-meta-[(phenylsulfonylaminocarbonyl)amino]benzyl)-6-(α-ethylphenethyl)-4-hydroxy-2H-pyran-2-one]	< 10%	29.8%	61.1%	85.6%	91.5%	90.5%	6.91	–
CCCCC1(Cc2ccccc2)CC(O)=C(C(C=Cc2ccccc2)c2ccccc2)C(=O)O1 (stereo not drawn) [Example 217, 2H-Pyran-2-one, 6-butyl-5,6-dihydro-3-(1,3-diphenyl-2-propenyl)-4-hydroxy-6-phenylmethyl-]	< 10%	< 10%	< 10%	33.1%	62.4%	69.1%	–	–
CCCCC1(Cc2ccccc2)CC(O)=C(C(CCc2ccccc2)c2ccccc2)C(=O)O1 (stereo not drawn) [Example 218, 2H-Pyran-2-one, 6-butyl-5,6-dihydro-3-(1,3-diphenylpropyl)-4-hydroxy-6-phenylmethyl-]	< 10%	< 10%	21.2%	46%	59.3%	58.2%	–	–
C=CC(C1=C(O)CC(CCCC)(Cc2ccccc2)OC1=O)c1ccccc1 (stereo not drawn) [Example 219, 2H-Pyran-2-one, 6-butyl-5,6-dihydro-4-hydroxy-6-phenylmethyl-3-(1-phenyl-2-propenyl)-]	< 10%	< 10%	35.3%	65.6%	79.7%	90.2%	–	–
CCCCC1(Cc2ccccc2)CC(O)=C(C(CC)c2ccccc2)C(=O)O1 (stereo not drawn) [Example 220, 2H-Pyran-2-one, 6-butyl-5,6-dihydro-4-hydroxy-6-phenylmethyl-3-(1-phenylpropyl)-]	< 10%	< 10%	21.3%	51.6%	68.4%	62.2%	–	–
CCC(Cc1ccccc1)c1cc(O)c(C(c2cccc(NC(=O)[C@H](C)NC(=O)OC(C)(C)C)c2)C2CC2)c(=O)o1 (stereo partly drawn) [Example 221, 3-(α-Cyclopropyl-meta-(tert-butyloxycarbonyl-L-alanylamino)benzyl)-6-(α-ethylphenethyl)-4-hydroxy-2H-pyran-2-one]	43.1%	72.1%	87.3%	102%	108%	101%	7.84	–
CCC(Cc1ccccc1)c1cc(O)c(C(c2cccc(NC(=O)[C@H](Cc3cn(S(=O)(=O)c4ccc(C)cc4)cn3)NC(=O)OC(C)(C)C)c2)C2CC2)c(=O)o1 (stereo partly drawn) [Example 222, 3-(α-Cyclopropyl-meta-(N-α-tert-butyloxycarbonyl-N-im-p-toluenesulfonyl-L-histidylamino)benzyl)-6-(α-ethylphenethyl)-4-hydroxy-2H-pyran-2-one]	19%	51.7%	75.8%	91%	98.3%	95.8%	7.73	–
CCC(Cc1ccccc1)c1cc(O)c(C(c2cccc(NS(=O)(=O)c3ccc(Cl)cc3)c2)C2CC2)c(=O)o1 (stereo not drawn) [Example 224, 3-(α-Cyclopropyl-meta-(4-chlorophenylsulfonylamino)benzyl)-6-(α-ethylphenethyl)-4-hydroxy-2H-pyran-2-one]	–	–	–	–	–	–	–	pKi: 7.83; inhibition at 0.123 µM: 46.9%; inhibition at 0.37 µM: 76.9%; inhibition at 1.1 µM: 99.6%; inhibition at 3.3 µM: 97.1%; inhibition at 10 µM: 110%; inhibition at 30 µM: 105%
CCC(Cc1ccccc1)c1cc(O)c(C(c2cccc(NC(=O)CC[C@H](NC(=O)OCc3ccccc3)C(=O)OCc3ccccc3)c2)C2CC2)c(=O)o1 (stereo partly drawn) [Example 225, 3-(α-Cyclopropyl-meta-(N-benzyloxycarbonyl-O-α-benzyl-L-glutamylamino)benzyl)-6-(α-ethylphenethyl)-4-hydroxy-2H-pyran-2-one]	< 10%	< 10%	< 10%	21%	30.6%	35.5%	–	–
CCC(Cc1ccccc1)c1cc(O)c(C(c2cccc(NC(=O)[C@H](Cc3c[nH]cn3)NC(=O)OC(C)(C)C)c2)C2CC2)c(=O)o1 (stereo partly drawn) [Example 226, 3-(α-Cyclopropyl-meta-(N-α-tert-butyloxycarbonyl-L-histidylamino)benzyl)-6-(α-ethylphenethyl)-4-hydroxy-2H-pyran-2-one]	–	–	–	–	–	–	8.40	inhibition at 0.123 µM: 73.4%; inhibition at 0.37 µM: 93.9%; inhibition at 1.1 µM: 106%; inhibition at 3.3 µM: 104%; inhibition at 10 µM: 101%; inhibition at 30 µM: 98.3%
CCC(Cc1ccccc1)c1cc(O)c(C(c2cccc(NC(=O)c3ccc(C#N)cc3)c2)C2CC2)c(=O)o1 (stereo not drawn) [Example 227]	< 10%	19.6%	49.2%	80.2%	89.8%	85.4%	–	–
CCC(Cc1ccccc1)c1cc(O)c(C(c2cccc(NS(=O)(=O)c3cccc4cccnc34)c2)C2CC2)c(=O)o1 (stereo not drawn) [Example 229, 3-(α-Cyclopropyl-meta-(8-quinolinesulfonylamino)benzyl)-6-(α-ethylphenethyl)-4-hydroxy-2H-pyran-2-one]	52.2%	95.9%	106%	106%	113%	102%	8.46	–
CCC(Cc1ccccc1)c1cc(O)c(C(c2cccc(NC(=O)CCn3ccc4ccccc43)c2)C2CC2)c(=O)o1 (stereo not drawn) [Example 230, 3-(α-Cyclopropyl-meta-(3-(1-indolyl)propanoylamino)benzyl)-6-(α-ethylphenethyl)-4-hydroxy-2H-pyran-2-one]	< 10%	15.3%	48.6%	71.3%	91.1%	85.3%	–	–
CCC(Cc1ccccc1)c1cc(O)c(C(c2cccc(NC(=O)Cc3ccccn3)c2)C2CC2)c(=O)o1 (stereo not drawn) [Example 231, 3-(α-Cyclopropyl-meta-(2-pyridylacetylamino)benzyl)-6-(α-ethylphenethyl)-4-hydroxy-2H-pyran-2-one]	16.5%	57.4%	77.7%	98.9%	113%	109%	7.28	–
